# Experimental data published in patent US20240299386A1, “Novel imidazole derivatives having protein kinase inhibitory activity and uses thereof” (INDUSTRY-UNIVERSITY COOPERATION FOUNDATION HANYANG …, priority 2021, published 2024).
# Biological target: JNK3 (Homo sapiens, UniProt P53779)
# Test: Measurement of JNK3 enzyme activity
# Type: biochemical
# Excerpt: Experimental Example 1. Measurement of JNK3 Enzyme Activity
# JNK3, sequence (P53779 whole entry, species assumed): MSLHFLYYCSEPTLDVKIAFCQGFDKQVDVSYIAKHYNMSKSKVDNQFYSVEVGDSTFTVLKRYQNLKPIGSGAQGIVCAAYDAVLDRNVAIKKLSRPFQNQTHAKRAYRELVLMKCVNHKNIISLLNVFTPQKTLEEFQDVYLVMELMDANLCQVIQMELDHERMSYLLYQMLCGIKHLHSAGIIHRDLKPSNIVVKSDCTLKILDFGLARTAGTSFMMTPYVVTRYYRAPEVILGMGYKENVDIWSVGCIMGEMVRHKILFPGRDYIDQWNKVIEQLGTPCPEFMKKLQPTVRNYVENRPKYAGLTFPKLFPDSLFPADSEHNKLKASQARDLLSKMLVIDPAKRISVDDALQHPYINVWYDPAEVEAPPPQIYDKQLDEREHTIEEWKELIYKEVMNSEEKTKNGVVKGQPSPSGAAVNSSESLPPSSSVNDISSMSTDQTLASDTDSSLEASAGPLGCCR
smiles,measurement,setting,value
"NC(=O)C1Cc2nc(-c3ccc4c(c3)OCO4)n(-c3ccnc(N[C@H]4CCCN(C(=O)C5CC5)C4)n3)c2C1 (stereo partly drawn) [Compound 22d, 2-(benzo[d][1,3]dioxol-5-yl)-1-(2-(((S)-1-(cyclopropanecarbonyl)piperidin-3-yl)amino)pyrimidin-4-yl)-1,4,5,6-tetracyclopenta[d]imidazol-5-carboxamide]",IC50,Table 4,< 0.03 µM
"CNC(=O)C1Cc2nc(-c3ccc(F)c(C(F)(F)F)c3)n(-c3ccnc(NC4CCCN(C(=O)C5CC5)C4)n3)c2C1 (single isomer, unassigned) [Compound 27a]",IC50,Table 1,> 1 µM
"CCOC(=O)C1Cc2nc(-c3ccc(F)c(C(F)(F)F)c3)n(-c3ccnc(N[C@@H]4CCCN(C(=O)C5CC5)C4)n3)c2C1 (stereo partly drawn) [Compound 19a, ethyl 1-(2-(((R)-1-(cyclopropanecarbonyl)piperidin-3-yl)amino)pyrimidin-4-yl)-2-(4-fluoro-3-(trifluoromethyl)phenyl)-1,4,5,6-tetracyclopenta[d]imidazol-5-carboxylate]",IC50,Table 1,< 0.03 µM
"CCOC(=O)C1Cc2nc(-c3ccc4c(c3)CCO4)n(-c3ccnc(N[C@H]4CCCN(C(=O)C5CC5)C4)n3)c2C1 (stereo partly drawn) [Compound 18e, ethyl 1-(2-(((S)-1-(cyclopropanecarbonyl)piperidin-3-yl)amino)pyrimidin-4-yl)-2-(2,3-dihydrobenzofuran-5-yl)-1,4,5,6-tetracyclopenta[d]imidazol-5-carboxylate]",IC50,Table 5,< 0.03 µM
"CCOC(=O)C1Cc2nc(-c3ccc(F)c(C(F)(F)F)c3)n(-c3ccnc(N[C@H]4CCN(C(=O)C5CC5)C4)n3)c2C1 (stereo partly drawn) [Compound 16a, ethyl 1-(2-(((S)-1-(cyclopropanecarbonyl)pyrrolidine-3-yl)amino)pyrimidin-4-yl)-2-(4-fluoro-3-(trifluoromethyl)phenyl)-1,4,5,6-tetracyclopenta[d]imidazol-5-carboxylate]",IC50,Table 1,> 1 µM
CNC(=O)C1Cc2nc(-c3ccc(F)c(-c4ccc5ccccc5c4)c3)n(-c3ccnc(N[C@@H]4CCCN(C(=O)C5CC5)C4)n3)c2C1 (stereo partly shown) [Compound 27c],IC50,Table 3,< 0.03 µM
"NC(=O)C1Cc2nc(-c3ccc4c(c3)CCO4)n(-c3ccnc(N[C@H]4CCCN(C(=O)C5CC5)C4)n3)c2C1 (stereo partly drawn) [Compound 22e, 1-(2-(((S)-1-(cyclopropanecarbonyl)piperidin-3-yl)amino)pyrimidin-4-yl)-2-(2,3-dihydrobenzofuran-5-yl)-1,4,5,6-tetracyclopenta[d]imidazol-5-carboxamide]",IC50,Table 5,< 0.03 µM
"CCOC(=O)C1Cc2nc(-c3ccc4c(c3)OCO4)n(-c3ccnc(N[C@H]4CCCN(C(=O)C5CC5)C4)n3)c2C1 (stereo partly drawn) [Compound 18d, ethyl 2-(benzo[d][1,3]dioxol-5-yl)-1-(2-(((S)-1-(cyclopropanecarbonyl)piperidin-3-yl)amino)pyrimidin-4-yl)-1,4,5,6-tetracyclopenta[d]imidazol-5-carboxylate]",IC50,Table 4,< 0.03 µM
"NC(=O)C1Cc2nc(-c3ccc4c(c3)OCO4)n(-c3ccnc(N[C@@H]4CCN(C(=O)C5CC5)C4)n3)c2C1 (stereo partly drawn) [Compound 21d, 2-(benzo[d][1,3]dioxol-5-yl)-1-(2-(((R)-1-(cyclopropanecarbonyl)pyrrolidine-3-yl)amino)pyrimidin-4-yl)-1,4,5,6-tetracyclopenta[d]imidazol-5-carboxamide]",IC50,Table 4,> 1 µM
"CCOC(=O)C1Cc2nc(-c3ccc(Cl)c(Cl)c3)n(-c3ccnc(N[C@@H]4CCN(C(=O)C5CC5)C4)n3)c2C1 (stereo partly drawn) [Compound 17b, ethyl 1-(2-(((R)-1-(cyclopropanecarbonyl)pyrrolidine-3-yl)amino)pyrimidin-4-yl)-2-(3,4-dichlorophenyl)-1,4,5,6-tetracyclopenta[d]imidazol-5-carboxylate]",IC50,Table 2,< 0.03 µM
"NC(=O)C1Cc2nc(-c3ccc(F)c(C(F)(F)F)c3)n(-c3ccnc(NC4CCCN(C(=O)C5CC5)C4)n3)c2C1 (single isomer, unassigned) [Compound 22a]",IC50,Table 1,< 0.03 µM
"CNC(=O)C1Cc2nc(-c3ccc(F)c(C(F)(F)F)c3)n(-c3ccnc(NC4CCCN(C(=O)C5CC5)C4)n3)c2C1 (single isomer, unassigned) [Compound 26a]",IC50,Table 1,< 0.03 µM
"NC(=O)C1Cc2nc(-c3ccc4c(c3)CCO4)n(-c3ccnc(N[C@H]4CCN(C(=O)C5CC5)C4)n3)c2C1 (stereo partly drawn) [Compound 20e, 1-(2-(((S)-1-(cyclopropanecarbonyl)pyrrolidine-3-yl)amino)pyrimidin-4-yl)-2-(2,3-dihydrobenzofuran-5-yl)-1,4,5,6-tetracyclopenta[d]imidazol-5-carboxamide]",IC50,Table 5,< 0.03 µM
"NC(=O)C1Cc2nc(-c3ccc(F)c(C(F)(F)F)c3)n(-c3ccnc(N[C@@H]4CCN(C(=O)C5CC5)C4)n3)c2C1 (stereo partly drawn) [Compound 21a, 1-(2-(((R)-1-(cyclopropanecarbonyl)pyrrolidine-3-yl)amino)pyrimidin-4-yl)-2-(4-fluoro-3-(trifluoromethyl)phenyl)-1,4,5,6-tetracyclopenta[d]imidazol-5-carboxamide]",IC50,Table 1,> 1 µM
"CCOC(=O)C1Cc2nc(-c3ccc4c(c3)OCO4)n(-c3ccnc(N[C@@H]4CCN(C(=O)C5CC5)C4)n3)c2C1 (stereo partly drawn) [Compound 17d, ethyl 2-(benzo[d][1,3]dioxol-5-yl)-1-(2-(((R)-1-(cyclopropanecarbonyl)pyrrolidine-3-yl)amino)pyrimidin-4-yl)-1,4,5,6-tetracyclopenta[d]imidazol-5-carboxylate]",IC50,Table 4,< 0.03 µM
"CCOC(=O)C1Cc2nc(-c3ccc(Cl)c(Cl)c3)n(-c3ccnc(N[C@H]4CCN(C(=O)C5CC5)C4)n3)c2C1 (stereo partly drawn) [Compound 16b, ethyl 1-(2-(((S)-1-(cyclopropanecarbonyl)pyrrolidine-3-yl)amino)pyrimidin-4-yl)-2-(3,4-dichlorophenyl)-1,4,5,6-tetracyclopenta[d]imidazol-5-carboxylate]",IC50,Table 2,< 0.03 µM
"NC(=O)C1Cc2nc(-c3ccc4ccccc4c3)n(-c3ccnc(N[C@@H]4CCN(C(=O)C5CC5)C4)n3)c2C1 (stereo partly drawn) [Compound 21c, 1-(2-(((R)-1-(cyclopropanecarbonyl)pyrrolidine-3-yl)amino)pyrimidin-4-yl)-2-(naphthalen-2-yl)-1,4,5,6-tetracyclopenta[d]imidazol-5-carboxamide]",IC50,Table 3,< 0.03 µM
NC(=O)C1Cc2nc(-c3ccc4c(c3)OCO4)n(-c3ccnc(N[C@@H]4CCCN(C(=O)C5CC5)C4)n3)c2C1 (stereo partly shown) [Compound 23d],IC50,Table 4,< 0.03 µM
"CCOC(=O)C1Cc2nc(-c3ccc(F)c(C(F)(F)F)c3)n(-c3ccnc(N[C@H]4CCCN(C(=O)C5CC5)C4)n3)c2C1 (stereo partly drawn) [Compound 18a, ethyl 1-(2-(((S)-1-(cyclopropanecarbonyl)piperidin-3-yl)amino)pyrimidin-4-yl)-2-(4-fluoro-3-(trifluoromethyl)phenyl)-1,4,5,6-tetracyclopenta[d]imidazol-5-carboxylate]",IC50,Table 1,< 0.03 µM
"CCOC(=O)C1Cc2nc(-c3ccc4c(c3)CCO4)n(-c3ccnc(N[C@@H]4CCCN(C(=O)C5CC5)C4)n3)c2C1 (stereo partly drawn) [Compound 19e, ethyl 1-(2-(((R)-1-(cyclopropanecarbonyl)piperidin-3-yl)amino)pyrimidin-4-yl)-2-(2,3-dihydrobenzofuran-5-yl)-1,4,5,6-tetracyclopenta[d]imidazol-5-carboxylate]",IC50,Table 5,< 0.03 µM
"CCOC(=O)C1Cc2nc(-c3ccc(Cl)c(Cl)c3)n(-c3ccnc(N[C@H]4CCCN(C(=O)C5CC5)C4)n3)c2C1 (stereo partly drawn) [Compound 18b, ethyl 1-(2-(((S)-1-(cyclopropanecarbonyl)piperidin-3-yl)amino)pyrimidin-4-yl)-2-(3,4-dichlorophenyl)-1,4,5,6-tetracyclopenta[d]imidazol-5-carboxylate]",IC50,Table 2,< 0.03 µM
"CCOC(=O)C1Cc2nc(-c3ccc4ccccc4c3)n(-c3ccnc(N[C@@H]4CCN(C(=O)C5CC5)C4)n3)c2C1 (stereo partly drawn) [Compound 17c, ethyl 1-(2-(((R)-1-(cyclopropanecarbonyl)pyrrolidine-3-yl)amino)pyrimidin-4-yl)-2-(naphthalen-2-yl)-1,4,5,6-tetracyclopenta[d]imidazol-5-carboxylate]",IC50,Table 3,< 0.03 µM
"NC(=O)C1Cc2nc(-c3ccc4c(c3)CCO4)n(-c3ccnc(N[C@@H]4CCCN(C(=O)C5CC5)C4)n3)c2C1 (stereo partly drawn) [Compound 23e, 1-(2-(((R)-1-(cyclopropanecarbonyl)piperidin-3-yl)amino)pyrimidin-4-yl)-2-(2,3-dihydrobenzofuran-5-yl)-1,4,5,6-tetracyclopenta[d]imidazol-5-carboxamide]",IC50,Table 5,< 0.03 µM
"CNC(=O)C1Cc2nc(-c3ccc4c(c3)CCO4)n(-c3ccnc(N[C@H]4CCCN(C(=O)C5CC5)C4)n3)c2C1 (stereo partly drawn) [Compound 26e, 1-(2-(((S)-1-(cyclopropanecarbonyl)piperidin-3-yl)amino)pyrimidin-4-yl)-2-(2,3-dihydrobenzofuran-5-yl)-N-methyl-1,4,5,6-tetracyclopenta[d]imidazol-5-carboxamide]",IC50,Table 5,> 1 µM
"NC(=O)C1Cc2nc(-c3ccc4ccccc4c3)n(-c3ccnc(N[C@@H]4CCCN(C(=O)C5CC5)C4)n3)c2C1 (stereo partly drawn) [Compound 23c, 1-(2-(((R)-1-(cyclopropanecarbonyl)piperidin-3-yl)amino)pyrimidin-4-yl)-2-(naphthalen-2-yl)-1,4,5,6-tetracyclopenta[d]imidazol-5-carboxamide]",IC50,Table 3,< 0.03 µM
"NC(=O)C1Cc2nc(-c3ccc(Cl)c(Cl)c3)n(-c3ccnc(N[C@@H]4CCN(C(=O)C5CC5)C4)n3)c2C1 (stereo partly drawn) [Compound 21b, 1-(2-(((R)-1-(cyclopropanecarbonyl)pyrrolidine-3-yl)amino)pyrimidin-4-yl)-2-(3,4-dichlorophenyl)-1,4,5,6-tetracyclopenta[d]imidazol-5-carboxamide]",IC50,Table 2,< 0.03 µM
"CCOC(=O)C1Cc2nc(-c3ccc(F)c(C(F)(F)F)c3)n(-c3ccnc(N[C@@H]4CCN(C(=O)C5CC5)C4)n3)c2C1 (stereo partly drawn) [Compound 17a, ethyl 1-(2-(((R)-1-(cyclopropanecarbonyl)pyrrolidine-3-yl)amino)pyrimidin-4-yl)-2-(4-fluoro-3-(trifluoromethyl)phenyl)-1,4,5,6-tetracyclopenta[d]imidazol-5-carboxylate]",IC50,Table 1,< 0.03 µM
"NC(=O)C1Cc2nc(-c3ccc4c(c3)OCO4)n(-c3ccnc(N[C@H]4CCN(C(=O)C5CC5)C4)n3)c2C1 (stereo partly drawn) [Compound 20d, 2-(benzo[d][1,3]dioxol-5-yl)-1-(2-(((S)-1-(cyclopropanecarbonyl)pyrrolidine-3-yl)amino)pyrimidin-4-yl)-1,4,5,6-tetracyclopenta[d]imidazol-5-carboxamide]",IC50,Table 4,> 1 µM
